Assays:
Format in all cases: in vivo
NiIaparvata lugens Stal = assay: Test on plant hoppers (spray on rice plants), brown rice planthopper; settings: 48 h, read-out: Mortality (%) Brown rice planthopper
Description: (§1) A water dilution in a predetermined concentration of the active compound prepared as in Example 4 was sprayed onto rice plants, about 10 cm tall, grown in pots with a diameter of 12 cm in an amount of 10 ml per pot. The sprayed chemical was dried, and a wire net, 7 cm in diameter and 14 cm tall, was put over each of the pots. […] The mortality was then calculated.

[1] = system: Laodelphax striatellus Fallen; assay: Test on plant hoppers (spray on rice plants), small brown planthopper; settings: 48 h, read-out: Mortality (%) Small brown planthopper
Description: as §1
(§2) In the same way as above, the mortality was calculated on Sogatella furcifera Horvath and organophosphorus-resistant Laodelphax striatellus Fallen.

[2] = system: Sogatella furcifera Horvath; assay: Test on plant hoppers (spray on rice plants), white-backed rice planthopper; settings: 48 h, read-out: Mortality (%) Whight bached rice planthopper
Description: as §1, §2

| SMILES | mortality at 500 ppm (NiIaparvata lugens Stal) | mortality at 500 ppm [1] | mortality at 500 ppm [2] |
| --- | --- | --- | --- |
| CCCCCCCCCCCCN1CC([N+](=O)[O-])=C(NC)N(Cc2ccc(Cl)nc2)C1 [Compound 41] | 100% | 100% | 100% |
| CNC1=C([N+](=O)[O-])CN(C)CN1Cc1ccc(Cl)nc1 [Compound 8] | 100% | 100% | 100% |
| CN1CCN2C(=O)CCC([N+](=O)[O-])=C12 [Compound C-1] | 0% | 0% | 0% |
| O=c1[nH]c(=O)n2c(c1[N+](=O)[O-])NCC2 [Compound C-2] | 0% | 0% | 0% |

Reference: patent EP0402717A1, “5-nitro-tetrahydropyrimidines and insecticides containing them for agricultural uses” (NIHON BAYER AGROCHEM K.K., priority 1989, dated 1990)
